Experimental findings from patent publication US5385899A, “Aminoalkyl-substituted 5,6-dihydro-dibenz[b,e]azepine-6,11-dione-11-oximes” (Bayer Aktiengesellschaft, priority 1991, dated 1995) are described below.

The test system of the assay is HIV. The experiment in a line: HIV infection in cell culture: suppression of virus-induced syncytia (PBLs or H9 cells). The format is cell-based. To be noted: read-out: IC50 (suppression of 50% of virus-induced syncytia). The procedure:
The HIV test was carried out with slight modifications according to the method of Pauwels et al. [cf. Journal of Virological Methods 20, (1988), 309-321].
Normal human blood lyphocytes (PBLs) were concentrated by means of Ficoll-Hypaque and stimulated with phytohaemagglutinin (90 μg/ml) and interleukin-2 (40 U/ml) in RPMI 1640 and 20% foetal calf serum. For infection with the infectious HIV, PBLs were pelleted and the cell pellet was then suspended in 1 ml of HIV virus adsorption solution and incubated for 1 hour at 37° C.
Alternatively, HIV-susceptible H9 cells were employed instead of normal human blood lymphocytes for testing the antiviral effects of the compounds according to the invention.
The virus adsorption solution was centrifuged and the infected cell pellet was taken up in growth medium so that a concentration of 1×10^5 cells per ml was established. The cells infected in this way were pipetted into the wells of 96-well microtiter plates to give 1×10^4 cells/well.
The first vertical row of the microtiter plate contained only growth medium and cells which had not been infected, but otherwise treated exactly as described above (cell control). The second vertical row of the microtiter plate contained only HIV-infected cells (virus control) in growth medium. The other wells contained the compounds according to the invention in differing concentrations, starting from the wells of the 3rd vertical row of the microtiter plate, from which the test substances were diluted 2^10 times in 2-fold steps.
The test batches were incubated at 37° C. until, in the untreated virus control, the syncytia formation typical of HIV occurred (between day 3 and 6 after infection), which was then microscopically assessed. Under these test conditions, in the untreated virus control about 20-50 syncytia resulted, while the untreated cell control contained no syncytia.
The IC50 values were determined as the concentration of the treated and infected cells at which 50% (about 10-20 syncytia) of the virus-induced syncytia were suppressed by treatment with the compound according to the invention.

Setting [1] is: Human immunodeficiency virus 1, 72 h, HIV-infected PBLs or alternatively H9 cells, syncytia assessed microscopically between day 3 and 6 after infection, 37° C.

The structures appear in SMILES notation. Where two headings read alike, the source gives them in different places.

As usually defined, the IC50 is the concentration at which inhibition is half-maximal. `CN(C)CCON=c1c2cc(Cl)ccc2[nH]c(=O)c2ccccc12` (mixture of isomers) [Example 1, (E/Z)-2-Chloro-11-(2-dimethylaminoethoxyimino)-6-oxo-5,6-dihydro-11H-dibenz[b,e] azepine]: under setting [1], the IC50 came to 380 nM. For `Cc1ccnc2c1NC(=O)c1cccnc1N2C1CC1` [BIRG 587, reference compound], where the note is “Human immunodeficiency virus 1, H9, 72 h”, the IC50 came to 90 nM. Consider `O=c1[nH]c2ccc(Cl)cc2c(=NOCCN2CCOCC2)c2ccccc12` [Example 3], for which the IC50 under setting [1] was 1500 nM.
